Numbers after ± are expanded uncertainties.
Assay: xn = mol fraction of the nth substance listed
Conditions: Liquid, Falling or rolling sphere viscometry

Cc1ccc(C)cc1 [1,4-dimethylbenzene] + CC(=O)O
viscosity [mPa·s]
Conditions | x1 = 0.1001 | x1 = 0.1997 | x1 = 0.3001 | x1 = 0.3997 | x1 = 0.5 | x1 = 0.6002 | x1 = 0.6988 | x1 = 0.7994 | x1 = 0.8994
313.15 K, 100 kPa | 0.725 ± 0.008 | 0.63 ± 0.007 | 0.571 ± 0.006 | 0.522 ± 0.006 | 0.52 ± 0.005 | 0.514 ± 0.005 | 0.508 ± 0.005 | 0.505 ± 0.005 | 0.499 ± 0.005
313.15 K, 800 kPa | 0.731 ± 0.008 | 0.635 ± 0.007 | 0.576 ± 0.006 | 0.527 ± 0.006 | 0.524 ± 0.006 | 0.519 ± 0.005 | 0.512 ± 0.005 | 0.509 ± 0.005 | 0.503 ± 0.005
313.15 K, 1600 kPa | 0.737 ± 0.008 | 0.641 ± 0.007 | 0.583 ± 0.006 | 0.532 ± 0.006 | 0.53 ± 0.006 | 0.524 ± 0.006 | 0.517 ± 0.005 | 0.514 ± 0.005 | 0.508 ± 0.005
313.15 K, 2400 kPa | 0.743 ± 0.008 | 0.647 ± 0.007 | 0.585 ± 0.006 | 0.537 ± 0.006 | 0.535 ± 0.006 | 0.529 ± 0.006 | 0.522 ± 0.005 | 0.519 ± 0.005 | 0.513 ± 0.005
313.15 K, 3200 kPa | 0.749 ± 0.008 | 0.653 ± 0.007 | 0.591 ± 0.006 | 0.543 ± 0.006 | 0.541 ± 0.006 | 0.534 ± 0.006 | 0.527 ± 0.006 | 0.525 ± 0.005 | 0.518 ± 0.005
333.15 K, 100 kPa | 0.587 ± 0.006 | 0.508 ± 0.005 | 0.459 ± 0.005 | 0.424 ± 0.004 | 0.419 ± 0.004 | 0.418 ± 0.004 | 0.415 ± 0.004 | 0.412 ± 0.004 | 0.407 ± 0.004
333.15 K, 800 kPa | 0.592 ± 0.006 | 0.514 ± 0.005 | 0.464 ± 0.005 | 0.429 ± 0.005 | 0.424 ± 0.004 | 0.423 ± 0.004 | 0.419 ± 0.004 | 0.416 ± 0.004 | 0.411 ± 0.004
333.15 K, 1600 kPa | 0.598 ± 0.006 | 0.52 ± 0.006 | 0.47 ± 0.005 | 0.434 ± 0.005 | 0.429 ± 0.005 | 0.428 ± 0.004 | 0.424 ± 0.004 | 0.422 ± 0.004 | 0.416 ± 0.004
333.15 K, 2400 kPa | 0.605 ± 0.006 | 0.526 ± 0.006 | 0.476 ± 0.005 | 0.44 ± 0.005 | 0.435 ± 0.005 | 0.433 ± 0.005 | 0.429 ± 0.004 | 0.427 ± 0.004 | 0.421 ± 0.004
333.15 K, 3200 kPa | 0.611 ± 0.006 | 0.532 ± 0.006 | 0.482 ± 0.005 | 0.445 ± 0.005 | 0.44 ± 0.005 | 0.438 ± 0.005 | 0.435 ± 0.005 | 0.432 ± 0.005 | 0.427 ± 0.004
353.15 K, 100 kPa | 0.481 ± 0.005 | 0.419 ± 0.004 | 0.378 ± 0.004 | 0.351 ± 0.004 | 0.347 ± 0.004 | 0.342 ± 0.004 | 0.341 ± 0.004 | 0.339 ± 0.004 | 0.339 ± 0.004
353.15 K, 800 kPa | 0.487 ± 0.005 | 0.425 ± 0.005 | 0.384 ± 0.004 | 0.356 ± 0.004 | 0.352 ± 0.004 | 0.347 ± 0.004 | 0.346 ± 0.004 | 0.343 ± 0.004 | 0.344 ± 0.004
353.15 K, 1600 kPa | 0.493 ± 0.005 | 0.431 ± 0.005 | 0.39 ± 0.004 | 0.361 ± 0.004 | 0.357 ± 0.004 | 0.352 ± 0.004 | 0.351 ± 0.004 | 0.349 ± 0.004 | 0.349 ± 0.004
353.15 K, 2400 kPa | 0.499 ± 0.005 | 0.437 ± 0.005 | 0.396 ± 0.004 | 0.367 ± 0.004 | 0.363 ± 0.004 | 0.357 ± 0.004 | 0.356 ± 0.004 | 0.354 ± 0.004 | 0.354 ± 0.004
353.15 K, 3200 kPa | 0.505 ± 0.005 | 0.444 ± 0.005 | 0.402 ± 0.004 | 0.372 ± 0.004 | 0.368 ± 0.004 | 0.363 ± 0.004 | 0.361 ± 0.004 | 0.359 ± 0.004 | 0.359 ± 0.004
373.15 K, 100 kPa | 0.399 ± 0.004 | 0.353 ± 0.004 | 0.314 ± 0.003 | 0.297 ± 0.003 | 0.293 ± 0.003 | 0.289 ± 0.003 | 0.287 ± 0.003 | 0.285 ± 0.003 | 0.288 ± 0.003
373.15 K, 800 kPa | 0.405 ± 0.004 | 0.359 ± 0.004 | 0.319 ± 0.003 | 0.302 ± 0.003 | 0.298 ± 0.003 | 0.293 ± 0.003 | 0.291 ± 0.003 | 0.289 ± 0.003 | 0.293 ± 0.003
373.15 K, 1600 kPa | 0.412 ± 0.004 | 0.365 ± 0.004 | 0.326 ± 0.003 | 0.307 ± 0.003 | 0.303 ± 0.003 | 0.299 ± 0.003 | 0.296 ± 0.003 | 0.294 ± 0.003 | 0.298 ± 0.003
373.15 K, 2400 kPa | 0.418 ± 0.004 | 0.372 ± 0.004 | 0.332 ± 0.004 | 0.313 ± 0.003 | 0.309 ± 0.003 | 0.304 ± 0.003 | 0.302 ± 0.003 | 0.3 ± 0.003 | 0.303 ± 0.003
373.15 K, 3200 kPa | 0.424 ± 0.005 | 0.378 ± 0.004 | 0.338 ± 0.004 | 0.319 ± 0.003 | 0.315 ± 0.003 | 0.309 ± 0.003 | 0.307 ± 0.003 | 0.305 ± 0.003 | 0.308 ± 0.003
393.15 K, 800 kPa | 0.34 ± 0.004 | 0.294 ± 0.003 | 0.269 ± 0.003 | 0.252 ± 0.003 | 0.253 ± 0.003 | 0.249 ± 0.003 | 0.256 ± 0.003 | 0.254 ± 0.003 | 0.254 ± 0.003
393.15 K, 1600 kPa | 0.345 ± 0.004 | 0.3 ± 0.003 | 0.275 ± 0.003 | 0.258 ± 0.003 | 0.258 ± 0.003 | 0.254 ± 0.003 | 0.261 ± 0.003 | 0.258 ± 0.003 | 0.259 ± 0.003
393.15 K, 2400 kPa | 0.352 ± 0.004 | 0.306 ± 0.003 | 0.281 ± 0.003 | 0.263 ± 0.003 | 0.264 ± 0.003 | 0.26 ± 0.003 | 0.266 ± 0.003 | 0.264 ± 0.003 | 0.265 ± 0.003
393.15 K, 3200 kPa | 0.358 ± 0.004 | 0.313 ± 0.003 | 0.287 ± 0.003 | 0.269 ± 0.003 | 0.27 ± 0.003 | 0.265 ± 0.003 | 0.272 ± 0.003 | 0.27 ± 0.003 | 0.27 ± 0.003
413.15 K, 800 kPa | 0.294 ± 0.003 | 0.255 ± 0.003 | 0.237 ± 0.003 | 0.221 ± 0.002 | 0.217 ± 0.002 | 0.218 ± 0.002 | 0.222 ± 0.002 | 0.219 ± 0.002 | 0.22 ± 0.002
413.15 K, 1600 kPa | 0.3 ± 0.003 | 0.26 ± 0.003 | 0.243 ± 0.003 | 0.227 ± 0.002 | 0.217 ± 0.002 | 0.223 ± 0.002 | 0.227 ± 0.002 | 0.225 ± 0.002 | 0.225 ± 0.002
413.15 K, 2400 kPa | 0.307 ± 0.003 | 0.265 ± 0.003 | 0.249 ± 0.003 | 0.233 ± 0.003 | 0.228 ± 0.002 | 0.229 ± 0.002 | 0.232 ± 0.003 | 0.23 ± 0.002 | 0.231 ± 0.002
413.15 K, 3200 kPa | 0.313 ± 0.003 | 0.271 ± 0.003 | 0.255 ± 0.003 | 0.239 ± 0.003 | 0.233 ± 0.003 | 0.234 ± 0.003 | 0.237 ± 0.003 | 0.235 ± 0.003 | 0.236 ± 0.003
433.15 K, 800 kPa | – | 0.223 ± 0.002 | 0.208 ± 0.002 | 0.196 ± 0.002 | 0.195 ± 0.002 | 0.194 ± 0.002 | 0.194 ± 0.002 | 0.191 ± 0.002 | 0.194 ± 0.002
433.15 K, 1600 kPa | 0.26 ± 0.003 | 0.228 ± 0.002 | 0.213 ± 0.002 | 0.202 ± 0.002 | 0.201 ± 0.002 | 0.199 ± 0.002 | 0.199 ± 0.002 | 0.197 ± 0.002 | 0.199 ± 0.002
433.15 K, 2400 kPa | 0.267 ± 0.003 | 0.233 ± 0.003 | 0.219 ± 0.002 | 0.208 ± 0.002 | 0.206 ± 0.002 | 0.205 ± 0.002 | 0.204 ± 0.002 | 0.202 ± 0.002 | 0.204 ± 0.002
433.15 K, 3200 kPa | 0.273 ± 0.003 | 0.239 ± 0.003 | 0.226 ± 0.002 | 0.213 ± 0.002 | 0.212 ± 0.002 | 0.21 ± 0.002 | 0.209 ± 0.002 | 0.208 ± 0.002 | 0.209 ± 0.002
453.15 K, 800 kPa | 0.221 ± 0.002 | 0.196 ± 0.002 | 0.181 ± 0.002 | 0.177 ± 0.002 | 0.174 ± 0.002 | 0.173 ± 0.002 | 0.173 ± 0.002 | 0.17 ± 0.002 | 0.17 ± 0.002
453.15 K, 1600 kPa | 0.227 ± 0.002 | 0.201 ± 0.002 | 0.186 ± 0.002 | 0.183 ± 0.002 | 0.18 ± 0.002 | 0.179 ± 0.002 | 0.178 ± 0.002 | 0.176 ± 0.002 | 0.175 ± 0.002
453.15 K, 2400 kPa | 0.233 ± 0.003 | 0.206 ± 0.002 | 0.192 ± 0.002 | 0.188 ± 0.002 | 0.185 ± 0.002 | 0.184 ± 0.002 | 0.183 ± 0.002 | 0.181 ± 0.002 | 0.18 ± 0.002
453.15 K, 3200 kPa | 0.24 ± 0.003 | 0.211 ± 0.002 | 0.198 ± 0.002 | 0.194 ± 0.002 | 0.191 ± 0.002 | 0.189 ± 0.002 | 0.188 ± 0.002 | 0.187 ± 0.002 | 0.184 ± 0.002
473.15 K, 1600 kPa | 0.19 ± 0.002 | 0.17 ± 0.002 | 0.162 ± 0.002 | 0.162 ± 0.002 | 0.161 ± 0.002 | 0.16 ± 0.002 | 0.16 ± 0.002 | 0.157 ± 0.002 | 0.159 ± 0.002
473.15 K, 2400 kPa | 0.196 ± 0.002 | 0.175 ± 0.002 | 0.168 ± 0.002 | 0.167 ± 0.002 | 0.166 ± 0.002 | 0.165 ± 0.002 | 0.164 ± 0.002 | 0.162 ± 0.002 | 0.164 ± 0.002
473.15 K, 3200 kPa | 0.202 ± 0.002 | 0.181 ± 0.002 | 0.173 ± 0.002 | 0.173 ± 0.002 | 0.171 ± 0.002 | 0.17 ± 0.002 | 0.169 ± 0.002 | 0.168 ± 0.002 | 0.168 ± 0.002

From the NIST ThermoML archive (doi:10.1021/je800635g)
